# Measured values as given in patent US10189809B2, “SGC stimulators” (Ironwood Pharmaceuticals, Inc., priority 2010, dated 2019).
# Like-named read-outs stand apart in the source and are kept apart here.
# Legend:
# [1] = biological target: T1, soluble guanylate cyclase (sGC) (Homo sapiens (Human), UniProt Q02108+Q02153); test: sGC-HEK-cGMP assay run in the absence of SNP (HEK WC assay); assay type: cell-based; conditions: compound at 30 μM, absence of SNP
# Procedure: Human embryonic kidney cells (HEK293), endogenously expressing soluble guanylate cyclase (sGC), were used to evaluate the activity of test compounds. Compounds stimulating the sGC receptor should cause an increase in the intracellular concentration of cGMP. HEK 293 cells were seeded in Dulbecco's Modification of Eagle's Medium supplemented with fetal bovine serum (10% final) and L-glutamine (2 mM final) in a 200 μL volume at a density of 1×10^5 cells/well in a poly-D-lysine coated 96 well flat bottom plate and grown overnight at 37° C. Medium was aspirated and cells were washed with 1× Hank's Buffered Saline Salt Solution (200 μL). Cells were then incubated for 15 minutes at 37° C. with 0.5 mM 3-isobutyl-1-methylxanthine (200 μL). Test article was then added to the assay mixture (2 μL) and incubated at 37° C. for 10 minutes. After the 10 minute incubation, the assay mixture was aspirated and 0.1M HCl (200 μL) was added to the cells. The plate was incubated at 4° C. for 30 minutes in the 0.1M HCl to stop the reaction and lysed the cells. The plates were then centrifuged at 1,200 g for 5 minutes at room temperature. Supernatants were collected and transferred to a new flat bottom 96 well plate for analysis. Vehicle controls were carried out using DMSO (1%). A known sGC stimulator, BAY 41-2272, was used as the positive control. Samples were diluted with an equal volume of 1 M Ammonium Acetate (pH 7) to neutralize samples for better chromatography. A 2× cGMP standard curve was prepared in 0.1 M HCl and then diluted with an equal volume of 1 M Ammonium Acetate, with the following final concentrations in nM: 1024, 512, 256, 128, 64, 32, 16, 8, 4, 2, 1. cGMP concentrations were determined from each sample using the LC/MS conditions (Table 2 below) and calculated standard curve. EC50 values were calculated from concentration-response curves generated with GraphPad Prism Software.
# [2] = biological target: T1, soluble guanylate cyclase (sGC); test: sGC-HEK-cGMP assay run with SNP incubation (HEK WC assay); assay type: cell-based; conditions: for HEK WC Assay (fold increase at 30 μM in the presence of 10 μM SNP): compound at 30 μM; for EC50: in the presence of 10 uM SNP
# In short: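 EC50 values derive from concentration-response curves of intracellular cGMP in HEK293 cells, which express sGC endogenously. Compound and sodium nitroprusside were co-incubated 10 min at 37 °C after a 15-min 0.5 mM IBMX step, with 0.1 M HCl lysis and 1% DMSO vehicle.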
# [3] = read-out: HEK WC Assay (% Emax at 1 μM with 10 uM SNP)
# [4] = read-out: HEK WC Assay (% Emax at 10 μM with 10 uM SNP)
# [5] = read-out: HEK WC Assay (% Emax at 30 μM with 10 uM SNP)
# T1 sequence (Q02153 whole entry): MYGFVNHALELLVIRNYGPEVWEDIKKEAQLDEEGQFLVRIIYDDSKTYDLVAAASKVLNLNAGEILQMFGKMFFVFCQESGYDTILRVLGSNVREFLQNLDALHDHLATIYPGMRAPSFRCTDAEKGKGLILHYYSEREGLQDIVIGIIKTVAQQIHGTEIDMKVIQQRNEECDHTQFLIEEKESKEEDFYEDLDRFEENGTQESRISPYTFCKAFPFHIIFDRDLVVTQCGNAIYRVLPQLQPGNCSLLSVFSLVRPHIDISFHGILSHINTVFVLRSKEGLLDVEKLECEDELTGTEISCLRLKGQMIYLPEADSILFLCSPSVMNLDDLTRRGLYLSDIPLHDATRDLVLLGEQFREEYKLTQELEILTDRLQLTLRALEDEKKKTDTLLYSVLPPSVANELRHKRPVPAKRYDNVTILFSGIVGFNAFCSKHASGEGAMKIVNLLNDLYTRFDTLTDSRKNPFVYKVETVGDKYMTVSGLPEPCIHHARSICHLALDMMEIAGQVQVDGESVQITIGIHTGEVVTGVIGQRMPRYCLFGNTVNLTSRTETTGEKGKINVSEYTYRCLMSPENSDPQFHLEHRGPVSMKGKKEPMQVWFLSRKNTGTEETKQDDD
# T1 sequence (Q02108 whole entry): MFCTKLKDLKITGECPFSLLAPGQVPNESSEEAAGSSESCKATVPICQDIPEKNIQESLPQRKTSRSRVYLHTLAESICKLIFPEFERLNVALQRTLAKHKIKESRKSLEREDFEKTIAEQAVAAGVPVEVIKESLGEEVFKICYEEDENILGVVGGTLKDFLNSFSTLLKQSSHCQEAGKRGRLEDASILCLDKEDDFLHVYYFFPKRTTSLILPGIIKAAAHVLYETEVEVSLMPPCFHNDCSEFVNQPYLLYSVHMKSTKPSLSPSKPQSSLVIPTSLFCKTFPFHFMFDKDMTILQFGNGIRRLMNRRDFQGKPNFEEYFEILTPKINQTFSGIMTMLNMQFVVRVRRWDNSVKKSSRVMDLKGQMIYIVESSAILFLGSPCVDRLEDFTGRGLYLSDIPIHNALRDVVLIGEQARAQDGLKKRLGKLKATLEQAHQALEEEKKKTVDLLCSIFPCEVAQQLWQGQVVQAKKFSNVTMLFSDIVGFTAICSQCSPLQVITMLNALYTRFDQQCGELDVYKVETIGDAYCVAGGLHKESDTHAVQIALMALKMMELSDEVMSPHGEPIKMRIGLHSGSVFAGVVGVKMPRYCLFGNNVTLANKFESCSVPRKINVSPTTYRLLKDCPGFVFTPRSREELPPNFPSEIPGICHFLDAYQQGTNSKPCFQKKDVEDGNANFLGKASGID
HEK WC Assay (fold increase at 30 μM in the absence of SNP) [1],HEK WC Assay (fold increase at 30 μM in the presence of 10 μM SNP) [2],EC50 [2],"Emax [2, 3]","Emax [2, 4]","Emax [2, 5]",SMILES
D (D = 5 to <10 fold increase),E (E = 10 to <20 fold increase),< 20 µM,20 to 40%,40 to 60%,40 to 60%,Oc1nc(-c2cc(-c3ccon3)n(Cc3ccccc3F)n2)ncc1Br [Compound I-192]
E (E = 10 to <20 fold increase),E (E = 10 to <20 fold increase),< 20 µM,10 to 20%,40 to 60%,60 to 80%,Nc1nc(-c2cc(-c3ccon3)n(Cc3ccccc3F)n2)ncc1NC(=O)c1cccc(O)n1 [Compound I-193]
D (D = 5 to <10 fold increase),E (E = 10 to <20 fold increase),< 20 µM,40 to 60%,60 to 80%,60 to 80%,Fc1ccccc1Cn1nc(-c2ncccn2)cc1-c1ccon1 [Compound I-195]
C (C = 2 to <5 fold increase),E (E = 10 to <20 fold increase),20 to 40 µM,10 to 20%,40 to 60%,40 to 60%,Oc1nc(-c2cc(-c3ncco3)n(Cc3ccccc3F)n2)ncc1F [Compound I-197]
C (C = 2 to <5 fold increase),E (E = 10 to <20 fold increase),20 to 40 µM,10 to 20%,20 to 40%,40 to 60%,Fc1cccc(F)c1Cn1nc(-c2ncccn2)cc1-c1ccon1 [Compound I-199]
C (C = 2 to <5 fold increase),E (E = 10 to <20 fold increase),20 to 40 µM,10 to 20%,20 to 40%,40 to 60%,CC(C)(O)C(=O)Nc1cnc(-c2cc(-c3ccon3)n(Cc3ccccc3F)n2)nc1N [Compound I-209]
D (D = 5 to <10 fold increase),E (E = 10 to <20 fold increase),20 to 40 µM,20 to 40%,20 to 40%,40 to 60%,Nc1nc(-c2cc(-c3ccon3)n(Cc3ccccc3F)n2)ncc1NC(=O)c1ccccc1OC(F)(F)F [Compound I-211]
D (D = 5 to <10 fold increase),E (E = 10 to <20 fold increase),< 20 µM,60 to 80%,60 to 80%,60 to 80%,Nc1nc(-c2cc(-c3ccon3)n(Cc3ccccc3F)n2)ncc1NC(=O)CN1C(=O)c2ccccc2C1=O [Compound I-212]
E (E = 10 to <20 fold increase),F (F = 20 to <30 fold increase),< 20 µM,80 to 100%,80 to 100%,80 to 100%,Nc1nc(-c2cc(-c3ccon3)n(Cc3ccccc3F)n2)ncc1NC(=O)c1cccc(C(F)(F)F)c1 [Compound I-215]
C (C = 2 to <5 fold increase),E (E = 10 to <20 fold increase),100 to 300 µM,0 to 10%,10 to 20%,10 to 20%,Nc1nc(-c2cc(-c3ccon3)n(Cc3ccccc3F)n2)ncc1NCc1ccccc1 [Compound I-223]

# More lines, now with the values behind:
SMILES,HEK WC Assay (fold increase at 30 μM in the absence of SNP) [1],HEK WC Assay (fold increase at 30 μM in the presence of 10 μM SNP) [2],EC50 [2],"Emax [2, 3]","Emax [2, 4]","Emax [2, 5]"
Fc1cccc(Cn2nc(-c3ncccn3)cc2-c2ccon2)c1F [Compound I-198],D (D = 5 to <10 fold increase),E (E = 10 to <20 fold increase),< 20 µM,40 to 60%,40 to 60%,60 to 80%
Clc1ccccc1Cn1nc(-c2ncccn2)cc1-c1ccon1 [Compound I-200],B (B = 1 to <2 fold increase),C (C = 2 to <5 fold increase),300 to 600 µM,0 to 10%,0 to 10%,0 to 10%
FC(F)(F)c1ccccc1Cn1nc(-c2ncccn2)cc1-c1ccon1 [Compound I-201],B (B = 1 to <2 fold increase),B (B = 1 to <2 fold increase),,0 to 10%,0 to 10%,0 to 10%
Fc1cccc(Cn2nc(-c3ncccn3)cc2-c2ccon2)c1 [Compound I-202],C (C = 2 to <5 fold increase),E (E = 10 to <20 fold increase),< 20 µM,20 to 40%,40 to 60%,40 to 60%
Cc1nc(-c2cc(-c3ccon3)n(Cc3ccccc3F)n2)nc(O)c1F [Compound I-203],B (B = 1 to <2 fold increase),D (D = 5 to <10 fold increase),60 to 100 µM,0 to 10%,10 to 20%,20 to 40%
c1cnc(-c2cc(-c3ccon3)n(Cc3cscn3)n2)nc1 [Compound I-204],B (B = 1 to <2 fold increase),C (C = 2 to <5 fold increase),,0 to 10%,0 to 10%,0 to 10%
Oc1ccccc1Cn1nc(-c2ncccn2)cc1-c1ccon1 [Compound I-207],B (B = 1 to <2 fold increase),C (C = 2 to <5 fold increase),900 to 1200 µM,0 to 10%,0 to 10%,0 to 10%
c1cnc(-c2cc(-c3ccon3)n(Cc3cncnc3)n2)nc1 [Compound I-208],B (B = 1 to <2 fold increase),D (D = 5 to <10 fold increase),100 to 300 µM,0 to 10%,10 to 20%,10 to 20%
OCCc1cnc(-c2cc(-c3ccon3)n(Cc3ccccc3F)n2)nc1O [Compound I-210],C (C = 2 to <5 fold increase),D (D = 5 to <10 fold increase),60 to 100 µM,0 to 10%,10 to 20%,20 to 40%
NCC(=O)Nc1cnc(-c2cc(-c3ccon3)n(Cc3ccccc3F)n2)nc1N [Compound I-213],D (D = 5 to <10 fold increase),E (E = 10 to <20 fold increase),60 to 100 µM,0 to 10%,10 to 20%,20 to 40%
Nc1nc(-c2cc(-c3ccon3)n(Cc3ccccc3F)n2)ncc1NC(=O)C1(c2ccccc2)CCC1 [Compound I-218],D (D = 5 to <10 fold increase),E (E = 10 to <20 fold increase),20 to 40 µM,40 to 60%,40 to 60%,20 to 40%
Nc1nc(-c2cc(-c3ccon3)n(Cc3ccccc3F)n2)ncc1NC(=O)[C@@H]1CCCN1C(=O)C(F)(F)F [Compound I-219],D (D = 5 to <10 fold increase),E (E = 10 to <20 fold increase),< 20 µM,20 to 40%,60 to 80%,60 to 80%
c1cnc(-c2cc(-c3ccon3)n(Cc3cnccn3)n2)nc1 [Compound I-221],B (B = 1 to <2 fold increase),C (C = 2 to <5 fold increase),,0 to 10%,0 to 10%,10 to 20%
O=S(=O)(c1cnc(-c2cc(-c3ccon3)n(Cc3ccccc3F)n2)nc1O)N1CCOCC1 [Compound I-224],C (C = 2 to <5 fold increase),E (E = 10 to <20 fold increase),< 20 µM,20 to 40%,40 to 60%,40 to 60%
